Results published in ChEMBL document CHEMBL1144962, “A new sterol sulfate, Sch 572423, from a marine sponge, Topsentia sp” (Bioorg Med Chem Lett, 2003).

Target: P2Y purinoceptor 12 (Homo sapiens, UniProt Q9H244)
Assay: Binding affinity against Purinergic receptor P2Y12 using [3H]2-methylthio-ADP as radioligand
Assay type: tissue-based

Chain of P2Y purinoceptor 12 (Q9H244 whole entry): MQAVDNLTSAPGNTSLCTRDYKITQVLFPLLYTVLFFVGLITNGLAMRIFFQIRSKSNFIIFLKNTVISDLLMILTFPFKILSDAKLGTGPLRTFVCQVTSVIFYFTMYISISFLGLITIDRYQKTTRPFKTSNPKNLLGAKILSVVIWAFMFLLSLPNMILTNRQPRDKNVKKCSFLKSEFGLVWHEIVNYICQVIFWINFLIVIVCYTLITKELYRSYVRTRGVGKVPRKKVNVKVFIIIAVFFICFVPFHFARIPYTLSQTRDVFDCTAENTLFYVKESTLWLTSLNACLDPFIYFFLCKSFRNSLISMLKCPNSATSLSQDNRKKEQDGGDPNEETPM

Structure (SMILES)	IC50 [nM]
CC(C(O)C(O)[C@@H](C)C1CC[C@H]2[C@@H]3CC[C@H]4C[C@H](OS(=O)(=O)O)[C@H](OS(=O)(=O)O)C[C@]4(C)[C@@]3(C)CC[C@]12C)C(C)(C)C (some centres not stated)	2200
CC(CC[C@@H](C)C1CC[C@H]2[C@@H]3C[C@H](OS(=O)(=O)O)[C@H]4C[C@H](OS(=O)(=O)O)[C@H](OS(=O)(=O)O)C[C@]4(C)[C@@]3(C)CC[C@]12C)C(C)(C)C (some centres not stated)	480
